Test results reported in publication PMC8009478, “Novel Curcumin-Diethyl Fumarate Hybrid as a Dualistic GSK-3β Inhibitor/Nrf2 Inducer for the Treatment of Parkinson’s Disease” (ACS Chemical Neuroscience, 2020).

What was measured:
SH-SY5Y cells = assay: t-BuOOH-induced intracellular ROS formation (H2DCF-DA probe); assay type: cell-based, human; conditions: 5 μM for 24 h, then t-BuOOH 100 μM for 30 min
Excerpt: Oxidative stress represents a remarkable pathological feature in NDDs; it is the consequence of an imbalance between the formation of reactive radical species, among others ROS, and the function of many defense antioxidant enzymes. Initially, the potential of compounds 4–7 as indirect antioxidants was investigated[31] by assessing their capability to protect from oxidative stress through prevention of ROS formation upon exposure to tert-butyl hydroperoxide (t-BuOOH). In detail, SH-SY5Y cells were first chronically treated for 24 h (the time necessary to activate the endogenous antioxidant system) with 4–7 (5 μM) and then exposed to 100 μM of t-BuOOH for 30 min; DMF (5 and 10 μM) was employed as the reference compound. Then, the intracellular ROS formation was detected by fluorescent probe 2′-7′-dichlorodihydrofluorescein diacetate (H2DCF-DA).
Figure 3 Antioxidant activity of compounds 4–7 and DMF against t-BuOOH-induced ROS formation in SH-SY5Y cells. Cells were treated with compounds 4–7 (5 μM) and DMF (5 and 10 μM) for 24 h and then with t-BuOOH (100 μM) for 30 min. At the end of treatment, the ROS formation was evaluated by probe H2DCF-DA. Results are expressed as mean ± SEM of at least three independent experiments (* p < 0.05 and ** p < 0.01 vs cells treated with t-BuOOH at one-way ANOVA with the Dunnett post hoc test).
ROS formation was evaluated by using the fluorescent probe H2DCF-DA, as previously described.[43]

GSK-3β = GSK-3β (Homo sapiens, UniProt P49841); assay: Kinetic study of GSK-3β inhibition, competition with ATP (ADP-Glo Kinase Assay); assay type: biochemical; conditions: ATP 1 to 50 μM; inhibitors 5 and 10 μM; substrate 25 μM; double reciprocal plot
Method: Figure 2 Kinetic data for the curcumin-DEF hybrids 5 and 6. In the reaction mixture, the concentration of compounds employed is reported in the plot, the concentration of the substrate is constant (25 μM), and the concentration of ATP changes from 1 to 50 μM. Each point is the mean of two different experiments analyzed in triplicate.
Kinetic experiments were performed using the ADP-Glo Kinase Assay,[42] in which ATP concentration varied from 1 to 50 μM, the concentrations of inhibitors employed were 5 and 10 μM, while the concentration of GS2 was kept constant (25 μM). Graphs (Figure 2) report the double reciprocal plot of the data.

GSK-3α/β = assay: Phosphorylation of GSK-3α/β (Ser21/9) by Western blotting; conditions: SH-SY5Y, 5 μM, after 1 h of incubation

Sequence of GSK-3β (P49841 whole entry): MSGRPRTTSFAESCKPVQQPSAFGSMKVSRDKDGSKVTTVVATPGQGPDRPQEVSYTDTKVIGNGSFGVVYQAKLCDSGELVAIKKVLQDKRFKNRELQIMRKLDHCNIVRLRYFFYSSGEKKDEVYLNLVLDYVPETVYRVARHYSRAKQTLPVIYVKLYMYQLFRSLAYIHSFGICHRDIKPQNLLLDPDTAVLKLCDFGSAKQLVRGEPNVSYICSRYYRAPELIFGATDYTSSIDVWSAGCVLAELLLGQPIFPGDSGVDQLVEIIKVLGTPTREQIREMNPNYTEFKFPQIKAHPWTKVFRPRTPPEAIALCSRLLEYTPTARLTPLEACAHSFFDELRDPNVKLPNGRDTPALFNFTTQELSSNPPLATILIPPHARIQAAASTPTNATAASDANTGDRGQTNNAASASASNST

mechanism of inhibition as regards competition with ATP (GSK-3β)	SMILES	t-BuOOH-induced intracellular ROS formation (SH-SY5Y cells)	phospho-GSK-3α/β (Ser21/9) levels (GSK-3α/β)
	CCOC(=O)/C=C/C(C(=O)/C=C/c1ccc(OC)cc1)=C(O)\C=C\c1ccc(OC)cc1 [Compound 4, Ethyl (2E,4Z,6E)-5-Hydroxy-7-(4-methoxyphenyl)-4-((E)-3-(4-methoxyphenyl)acryloyl)hepta-2,4,6-trienoate]	significant reduction	
noncompetitive inhibitors of ATP binding	CCOC(=O)/C=C/C(C(=O)/C=C/c1ccc(OC)cc1)=C(O)\C=C\c1ccc(OCc2ccccc2)cc1 [Compound 5, Ethyl (2E,4Z,6E)-7-(4-(Benzyloxy)phenyl)-5-hydroxy-4-((E)-3-(4-methoxyphenyl)acryloyl)hepta-2,4,6-trienoate]	significant reduction	increase phospho-GSK-3α/β (Ser21/9) levels
